Data on three molecules can be found in patent US5670526A, “1,3,4-oxadiazoles” (Otsuka Pharmaceutical Co., Ltd., priority 1995, dated 1997).

The structures appear in SMILES notation.

Test [1] concerns Concanavalin A (ConA)-induced liver injury. The test can be described thus: Concanavalin A (ConA)-induced liver injury in mice, serum SGOT. The note with it: Mus musculus, ip; 50 mg/kg i.p.; ConA 15 mg/kg i.v., 17 hours; read-out: SGOT (% decrease). It counts as in vivo, C57BL/6 mice. As to the method: The following protocol was used for the Concanavalin A (ConA)-induced liver injury in mice. C57BL/6 mice were used. A solution of ConA (Sigma)in PBS was prepared at a concentration of 1.5 mg/ml. The mice were administered, i.p., with […] of a 10% DMSO solution containing varying amounts (adjusted to give 25 mg/kg to 50 mg/kg of compound) of the representative compounds of interest. Fifteen minutes later, the mice were treated via the tail vein with 15 mg/kg of ConA in PBS along with […] of 10% DMSO solution.
The mice were sacrificed after 17 hours and the blood collected into small conical tubes. The tubes were centrifuged and the serum collected and assayed for serum glutamic oxaloacetic transaminase (SGOT) (Sigma GOT kit). The high level enzyme standard (Sigma) was used to make the standard curve, as 100(undiluted), 50, 25, 12.5 and 0 S-F units/mi. Samples were diluted 1:5, 1:25 and 1:125 by adding 25 μl of serum to 100 μl of H2 O and serially diluting 25 μl into 100 μl two more times. Then 100 μl of the Sigma substrate were added to each tube along with 20 μl of each diluted sample and enzyme standard. The tube was incubated in a 37° C. bath with gentle shaking for 1 hour. To that was added […] of colorizing reagent and the tube was left to stand for 30 minutes. Then 500 μl of 0.8N NaOH solution were added, the tubes were capped and inverted to mix thoroughly. A 150 μl aliquot of each sample and 150 μl of the standard were added to wells of a 96-well plate and color formation was monitored at 490 nm. The amounts of SGOT were calculated using a standard curve, converted to Sigma-Frankel units/ml.

A further test deals with Neutrophil migration. The test can be described thus: Immune complex (BSA/anti-BSA) induced neutrophil migration into mouse skin, myeloperoxidase (MPO) assay. Type of test: in vivo, C57BL/6 mouse. The note with it: Mus musculus, Neutrophil; 12.5 mg of drug/site, i.d., 4 hours. As to the method:
Neutrophil migration and infiltration into tissue spaces and the effect thereon of the compounds of the instant compounds can be tested. For example, immune complexes can be developed at a subcutaneous or intradermal site to draw neutrophils and the effect of the instant compounds on neutrophil migration can be assessed. A protocol is as follows. Mice are injected IV with bovine serum albumin (BSA). Then the mice are injected intradermally with antibody to BSA. For experimental animals, the test substance is administered concurrently intradermally or subcutaneously at the site of antibody deposition. After about four hours, the animal is sacrificed, the skin at the injection site is removed and then treated appropriately, such as assaying for myeloperoxidase, to determine the extent of neutrophil migration to the injection site.
An i.v. injection of 100 μl of BSA at 10 mg/ml in saline was followed by a 25 μl injection of anti-BSA i.d. on the back side of a pre-shaven C57BL/6 mouse. At time 0, along with the BSA and anti-BSA, the test compound or vehicle was administered i.d. at the site of the antibody injection in a volume of 25 μl (for example, 0.5 mg/μl solution). Four hours post injection, the skin was removed and a myeloperoxidase (MPO) assay performed (Mulligan et al., J. Imm. 151(10): 5666-5674, 1993).
Briefly, the skin sample was placed in a 17×100 mm test tube containing 2 ml of ice cold buffer (PBS, pH 7.4). The sample was ground for 30 seconds and placed on ice. The sample was vortexed for 10 seconds and then sonicated for three minutes in iced water. The sample was frozen in dry ice for 30 minutes. The sample then was thawed rapidly in a water bath for 10 minutes. An aliquot of 1.5 ml was removed and placed in a microfuge tube. The sample was spun at high speed in a cold room for 15 minutes. The sample then was titrated across the wells in a microtiter plate with the first well containing a 1:3 dilution of sample, for example, 50 μl of sample and 150 μl of buffer. Substrate and hydrogen peroxide were added to each well. Following a suitable incubation period, sodium azide was added to the wells and the absorbance monitored in a spectrophotometer at 460 nm. […]

For the next test, the system named is VCAM. Kind of test: ELISA for cell surface molecules: inhibition of VCAM expression on IL-1β stimulated HUVEC's. Type of test: cell-based. The conditions noted are these: Homo sapiens; for inhibition at 1 µg/mL: @ 1 μg/mL. As to the method:
(§1) The following were used in an ELISA for cell surface molecules: Costar 96-well TC plates, 2% gelatin, 1% BSA-Dulbecco's PBS w/CaMg^++, IL-1β, primary antibody e.g., 7A9 for ELAM (EP 505749) secondary biotinylated goat anti-mouse IgG/IgM, streptavidin-peroxidase, OPD substrate tablets and 30% hydrogen peroxide.
(§2) To begin, 96-well plates were coated with 2% gelatin (1 hour). The excess gelatin was aspirated from the wells. HUVEC's were seeded at 20,000 cells/well in a 200 μl volume.
(§3) Prior to assay, the test compounds were dissolved in DMSO at a stock concentration of 3 mg/ml. The stock solutions were set at room temperature and observed to see if dissolution was complete. When monolayers reached confluence (24-28 hours after seeding) the test compounds were added to the wells at final concentrations of 10 μg/ml, 3 μg/ml and 1 μg/ml. The plates were incubated for 1 hour at 37° C. Then, IL-1β at a final concentration of 1 μg/ml was added and the plates incubated for 4 hours at 37° C. The supernatant was removed from the plates by flicking into a sink. The wells were washed 3× with 1% BSA-Dulbecco's PBS.
(§4) Primary antibody (7A9 for ELAM or a suitable antibody for VCAM or ICAM) at a concentration of 2.5 μg/ml in a 50 μl volume was added to each well. The plates were incubated at 4° C. for 45 minutes to 1 hour. The wells were washed 3× with 1% BSA Dulbecco's PBS. Secondary antibody (biotinylated goat anti-mouse IgG-IgM, commercially available) at 50 μl/well at a final dilution of 1:1,000 was added to the well and the plates were incubated for 45 minutes to 1 hour at 4° C. The wells were washed 3× with 1% BSA-Dulbecco's PBS.
(§5) Streptavidin-peroxidase at 50 μl/well with a final dilution of 1:3,000 was added to each well and the plates were incubated at 4° C. for 30 minutes. Again the plates were washed 3× with 1% BSA-Dulbecco's PBS.
(§6) Substrate solution (OPD tablets, citric acid buffer and hydrogen peroxide solution) was prepared and added at 100 μl/well. The plates were incubated 15 minutes at room temperature on a plate shaker and the reaction was stopped with 12.5% sulfuric acid. Plates were read for absorbance values at 492 nm.
(§7) The degree of inhibition in expression of ELAM or VCAM by a compound of the instant invention is manifest as a decrease in specific primary antibody binding. In the following table the IC50 values are provided using a representative sampling of compounds of the instant invention.

Another test deals with ELAM. Kind of test: ELISA for cell surface molecules: inhibition of ELAM expression on IL-1β stimulated HUVEC's. Type of test: cell-based. The note with it: Homo sapiens; for inhibition at 1 µg/mL: @ 1 μg/mL. As to the method:
as §1, §2, §3, §4, §5, §6, §7

Test [2] relates to Concanavalin A (ConA)-induced liver injury. The test can be described thus: Concanavalin A (ConA)-induced liver injury in mice, serum SGOT. The conditions noted are these: Mus musculus, ip; 20 mg/kg i.p.; ConA 15 mg/kg i.v., 17 hours; read-out: SGOT (% decrease). Type of test: in vivo, C57BL/6 mice.

For `[O-][S+](Cc1ccccc1)c1nnc(-c2cccnc2)o1` (stereo not drawn) [Compound 101], the inhibition in vivo at 50 mg/kg in test [1] is 68%. Also, the inhibition in vivo at 12.5 mg/site in the test on Neutrophil migration amounted to 50%. Also, the results for the inhibition at 10 µg/mL in the test on VCAM (@ 10 μg/mL) and in the test with ELAM (@ 10 μg/mL) were 40% and 75%, respectively.
In the case of `[O-][S+](Cc1ccccc1)c1nnc(-c2ccccn2)o1` (stereo not drawn) [Compound 97], the inhibition in vivo at 20 mg/kg in test [2] stood at 45%. Moreover, the inhibition in vivo at 12.5 mg/site in the test with Neutrophil migration was determined as 80%. Further, the inhibition at 1 µg/mL came out at 55% with VCAM and 50% in the test on ELAM.
Turning to `COc1c(C)cnc(C[S+]([O-])c2nnc(-c3ccccc3O)o2)c1C` (stereo not drawn) [Compound 113], the inhibition in vivo at 50 mg/kg in test [1] was 80%. Further, the inhibition in vivo at 12.5 mg/site with Neutrophil migration turned out to be 20%. For the same molecule, the figures for the inhibition at 1 µg/mL with VCAM and in the test with ELAM were 50% and 30%, respectively.
